From patent US9493502B2, “Ribofuranosyl purine compounds, methods for preparing the same and use thereof” (Beijing KBD Pharmaceuticals Co., Ltd., priority 2011, dated 2016)

Key:
[1] = tested on: ADP-induced platelet aggregation; test: in vitro anti-platelet aggregation induced by ADP (platelet-rich plasma, aggregometer); assay type: cell-based; conditions: Homo sapiens; platelet-rich plasma of healthy volunteers, inductive agent ADP (10 uM), 37° C.
Source text: (§1) The inventor conducted the anti-platelet aggregation activity screening for the compounds of the present invention, carried out the anti-platelet aggregation test by using the blood platelet which was closed to human physiological state and was not washed with water, and conducted the activity test of the in vitro anti-platelet aggregation induced by ADP, and also the activity test of the in vitro anti-platelet aggregation induced by AA (arachidonic acid) for some compounds. The present invention firstly discloses the activity test of the in vitro anti-platelet aggregation induced by AA conducted with said type of compounds.
(§2) The anti-platelet aggregation test of the compounds was conducted by the aggregometer (Model 400VS, Chrono-Log, Haverston, Pa.) from Chrono-Log Corp. ADP, AA (arachidonic acid), DMSO and trisodium citrate were purchased from Sigama.
(§3) The fasting venous blood of the subjects was collected, and placed into a 50 mL sampling tube containing 3.8% sodium citrate, and mixed homogeneously in a ratio of 1:9 (v/v) for anticoagulation, and centrifugalized at 300 rpm/min for 20 min.
(§4) The supernatant was taken to obtain platelet-rich blood plasma (PRP). The residual blood was then centrifugalized at 900 rpm/min for 10 min, and the supernatant fluid was taken to obtain platelet-poverty blood plasma (PPP). The analysis of platelet aggregation was conducted by using the aggregometer (Chrono-Log Corp.), wherein PRP and PPP were respectively added to two turbidimetric tubes. In the aggregometer, platelet-poverty blood plasma (PPP) was used as the control group. DMSO was used as the negative control. The turbidimetric tubes were incubated at 37° C. for 3 min. The PRP was stirred with a stirring rod at 900 rpm/min for 10-20 s, and the inductive agent ADP (10 uM) or AA (0.5 mM) was added to PRP, and start to record the aggregated wave patterns. The chart speed of the recorder (Model 707, Chrono-Log, Haverston, Pa., USA) was set up to be 1 cm min^−1, and the aggregation reaction was recorded for not less than 3 min. Finally, the apparatus automatically delineated the aggregation curve and calculated the results, i.e. maximum platelet aggregation rate. When the platelet aggregation was lower than 50% of the control group, the IC50 of the compound was calculated.

[2] = tested on: AA (arachidonic acid)-induced platelet aggregation; test: in vitro anti-platelet aggregation induced by AA (arachidonic acid) (platelet-rich plasma, aggregometer); assay type: cell-based; conditions: Homo sapiens; platelet-rich plasma of healthy volunteers, inductive agent AA (0.5 mM), 37° C.
Source text: as §1, §2, §3, §4

Compound	IC50 [1]	IC50 [2]
CCCCCCNc1nc(SCCC)nc2c1ncn2[C@@H]1O[C@H](CO)[C@@H](O)[C@H]1O [Example 8, 2-propylthio-6-n-hexylamino-9-β-D-ribofuranosyl purine]	102 µM	
CCSc1nc(NC2CCCCC2)c2ncn([C@@H]3O[C@H](CO)[C@@H](O)[C@H]3O)c2n1 [Example 9, 2-ethylthio-6-cyclohexylamino-9-β-D-ribofuranosyl purine]	104 µM	
CCCSc1nc(NC2CCCCC2)c2ncn([C@@H]3O[C@H](CO)[C@@H](O)[C@H]3O)c2n1 [Example 10, 2-propylthio-6-cyclohexylamino-9-β-D-ribofuranosyl purine]	151 µM	
CC(C)Sc1nc(NC2CCCCC2)c2ncn([C@@H]3O[C@H](CO)[C@@H](O)[C@H]3O)c2n1 [Example 11, 2-isopropylthio-6-cyclohexylamino-9-β-D-ribofuranosyl purine]	187 µM	
CCCCSc1nc(NC2CCCCC2)c2ncn([C@@H]3O[C@H](CO)[C@@H](O)[C@H]3O)c2n1 [Example 12, 2-butylthio-6-cyclohexylamino-9-β-D-ribofuranosyl purine]	83 µM	
CCSc1nc(NCc2ccccc2)c2ncn([C@@H]3O[C@H](CO)[C@@H](O)[C@H]3O)c2n1 [Example 13, 2-ethylthio-6-benzylamino-9-β-D-ribofuranosyl purine]	176 µM	
CCCSc1nc(NCc2ccccc2)c2ncn([C@@H]3O[C@H](CO)[C@@H](O)[C@H]3O)c2n1 [Example 14, 2-propylthio-6-benzylamino-9-β-D-ribofuranosyl purine]	216 µM	
CCCCSc1nc(NCc2ccccc2)c2ncn([C@@H]3O[C@H](CO)[C@@H](O)[C@H]3O)c2n1 [Example 15, 2-butylthio-6-benzylamino-9-β-D-ribofuranosyl purine]	202 µM	
CCSc1nc(NC(C)c2ccccc2)c2ncn([C@@H]3O[C@H](CO)[C@@H](O)[C@H]3O)c2n1 (stereo partly drawn) [Example 16, 2-ethylthio-6-(1-phenylethyl)amino-9-β-D-ribofuranosyl purine]	197 µM	
CCCSc1nc(NCc2ccc(OC)cc2)c2ncn([C@@H]3O[C@H](CO)[C@@H](O)[C@H]3O)c2n1 [Example 17, 2-propylthio-6-([4-methoxylbenzyl]amino)-9-β-D-ribofuranosyl purine]	181 µM	
CSc1nc(NCCc2ccccc2)c2ncn([C@@H]3O[C@H](CO)[C@@H](O)[C@H]3O)c2n1 [Example 18, 2-methylthio-6-phenylethylamino-9-β-D-ribofuranosyl purine]	36 µM	3 µM
CCSc1nc(NCCc2ccccc2)c2ncn([C@@H]3O[C@H](CO)[C@@H](O)[C@H]3O)c2n1 [Example 19, 2-ethylthio-6-phenylethylamino-9-β-D-ribofuranosyl purine]	29 µM	30 µM
CCCSc1nc(NCCc2ccccc2)c2ncn([C@@H]3O[C@H](CO)[C@@H](O)[C@H]3O)c2n1 [Example 20, 2-propylthio-6-phenylethylamino-9-β-D-ribofuranosyl purine]	52 µM	44 µM
CCCCSc1nc(NCCc2ccccc2)c2ncn([C@@H]3O[C@H](CO)[C@@H](O)[C@H]3O)c2n1 [Example 21, 2-butylthio-6-phenylethylamino-9-β-D-ribofuranosyl purine]	59 µM	> 300 µM
COc1ccc(CCNc2nc(SC)nc3c2ncn3[C@@H]2O[C@H](CO)[C@@H](O)[C@H]2O)cc1 [Example 22, 2-methylthio-6-([4-methoxylphenylethyl]-amino)-9-β-D-ribofuranosyl purine]	153 µM	
CCSc1nc(NCCc2ccc(OC)cc2)c2ncn([C@@H]3O[C@H](CO)[C@@H](O)[C@H]3O)c2n1 [Example 23, 2-ethylthio-6-([4-methoxylphenylethyl]amino)-9-β-D-ribofuranosyl purine]	89 µM	
CCCSc1nc(NCCc2ccc(OC)cc2)c2ncn([C@@H]3O[C@H](CO)[C@@H](O)[C@H]3O)c2n1 [Example 24, 2-propylthio-6-([4-methoxylphenylethyl]amino)-9-β-D-ribofuranosyl purine]	267 µM	
CCCCSc1nc(NCCc2ccc(OC)cc2)c2ncn([C@@H]3O[C@H](CO)[C@@H](O)[C@H]3O)c2n1 [Example 25, 2-butylthio-6-([4-methoxylphenylethyl]amino)-9-β-D-ribofuranosyl purine]	93 µM	
CCSc1nc(NCCc2cccc(OC)c2)c2ncn([C@@H]3O[C@H](CO)[C@@H](O)[C@H]3O)c2n1 [Example 26, 2-ethylthio-6-([3-methoxylphenylethyl]amino)-9-β-D-ribofuranosyl purine]	38 µM	> 300 µM
CCCSc1nc(NCCc2cccc(OC)c2)c2ncn([C@@H]3O[C@H](CO)[C@@H](O)[C@H]3O)c2n1 [Example 27, 2-propylthio-6-([3-methoxylphenylethyl]amino)-9-β-D-ribofuranosyl purine]	69 µM	
